Columns and labels:
[1] = tested on: plasma lyso-GB3; assay: ERT-naïve study: plasma lyso-Gb3; assay type: in vivo, human
Procedure: (§1) One study was a 24-month trial, including a 6-month double-blind, placebo-controlled period, in 67 ERT-naïve patients. The other study was an active-controlled, 18-month trial in 57 ERT-experienced patients with a 12-month open-label extension (OLE). Both the ERT-naïve and ERT-experienced studies included Fabry patients having an eGFR of ≥30 mL/min/1.73 m^2.
(§2) A further analysis of data from these studies examined annualized change in eGFRCKD-EPI, LVMi, WBC α-Gal A activity and plasma lyso-Gb3 levels based on renal function at baseline. The results for each renal subgroup are shown in Table 9 below, with the ERT-naïve study subgroups based on eGFRMDRD and the ERT-experienced study subgroups based on mGFRiohexol.

[2] = tested on: Fabry patients; assay: ERT-experienced study: LVMi; assay type: in vivo, human; conditions: Migalastat 0-18 months
Procedure: as §1, §2

[3] = ERT-naïve study population PK from sparse blood sampling; assay type: in vivo, human; conditions: ERT-naïve Fabry patients
Procedure: Thus, two Fabry patients with renal impairment were evaluated. One patient (P1) had moderate renal impairment, while the other patient (P2) had severe renal impairment. […] The comparison with the results from the ERT-naïve study allows for comparison of PK in the Fabry population with mostly normal, but some mild and a few moderately impaired Fabry patients. None of the patients in the ERT-naïve study had severe renal impairment because these patients were excluded from the study.

[4] = Additional simulations on renal impairment subjects (Example 4); parameters: species or system human; conditions: simulation
[5] = tested on: α-Gal A; assay: ERT-experienced study: WBC α-Gal A activity; assay type: in vivo, human; conditions: Migalastat 0-18 months
Procedure: as §1
(§3) A further analysis of data from these studies examined annualized change in eGFRCKD-EPI, LVMi, WBC α-Gal A activity and plasma lyso-Gb3 levels based on renal function at baseline.

[6] = Plasma and urine PK in healthy volunteers and Fabry patients (single and multiple ascending dose studies); assay type: in vivo, human; conditions: for Mean percent of the dose recovered in urine: SAD study
[7] = tested on: Fabry patients; assay: ERT-naïve study: LVMi; assay type: in vivo, human
Procedure: as §1, §2

[8] = tested on: cardiac repolarization; conditions: 150 mg and 1250 mg single doses; cited from earlier work
[9] = tested on: Fabry patients; assay: Long-term analysis of 12 patients that completed multiple studies: eGFR; assay type: in vivo, human
Source text: In addition to the studies described above, other patients also received migalastat therapy in other studies such as dose-finding studies and/or long-term extension studies. […] 12 patients that completed multiple studies were further analyzed. Linear regression was used to calculate the annualized rate of change in […] from baseline.

[10] = tested on: Fabry patients; assay: Analysis of 52 ERT-naive patients by baseline proteinuria: eGFR; assay type: in vivo, human; conditions: for Annualized eGFRCKD-EPI Change Rate, Mean (SE): ERT-naive, migalastat HCl 150 mg QOD ≥17 months; for Annualized eGFR Rate of Change (eGFRMDRD), Mean (SEM): Migalastat cohort
Procedure: Another analysis was performed on patients who participated in multiple studies for the use of migalastat. […] Results for […] were compared with changes in […] reported in the literature for untreated patients with Fabry disease (natural history cohort; Schiffmann R et al. Nephrol Dial Transplant. 2009; 24:2102-11) and are shown in Table 15 below: […]

[11] = tested on: α-Gal A; assay: ERT-naïve study: WBC α-Gal A activity; assay type: in vivo, human
Procedure: as §1, §3

[12] = tested on: Fabry patients; assay: ERT-experienced study: renal function (eGFR, mGFR); assay type: in vivo, human; conditions: for Annualized Change in eGFRCKD-EPI, mean ± SE: ERT-Experienced, Migalastat 0-18 months; for mean annualized rate of change of eGFRCKD-EPI / mean annualized rate of change mGFRiohexol / mean±SE annualized rate of change of eGFRCKD-EPI: ERT-experienced study; for mean annualized rate of change of eGFRCKD-EPI: baseline to 18 months (FIG. 12A); for mean annualized rate of change mGFRiohexol: baseline to 18 months (FIG. 12B); for mean±SE annualized rate of change of eGFRCKD-EPI: baseline to 18 months (FIG. 13)
Procedure: One study was a 24-month trial, including a 6-month double-blind, placebo-controlled period, in 67 ERT-naïve patients. The other study was an active-controlled, 18-month trial in 57 ERT-experienced patients with a 12-month open-label extension (OLE). Both the ERT-naïve and ERT-experienced studies included Fabry patients having an eGFR of ≥30 mL/min/1.73 m^2. […] Annualized change in eGFR using the Modification of Diet in Renal Disease ([…]) was also calculated. […] Although the number of patients with moderate renal impairment included in this analysis is two (compared to three for the ERT-naïve study), the data supports the efficacy of migalastat when administered to patients with some form of renal impairment. A further analysis of data from these studies examined annualized change in […], WBC α-Gal A activity and plasma lyso-Gb3 levels based on renal function at baseline. The results for each renal subgroup are shown in Table 9 below, with the ERT-naïve study subgroups based on […] and the ERT-experienced study subgroups based on mGFRiohexol.

[13] = Migalastat→Migalastat 0-24 months, renal subgroup 30 to < 60
[14] = Migalastat→Migalastat 0-24 months, renal subgroup ≥60
[15] = Placebo→Migalastat 6-24 months, renal subgroup ≥60
[16] = Placebo→Migalastat 6-24 months, renal subgroup 30 to < 60
[17] = Females, baseline urine protein 100-1000 mg/24 h
[18] = Females, baseline urine protein <100 mg/24 h
[19] = Females, baseline urine protein >1000 mg/24 h
[20] = Males, baseline urine protein 100-1000 mg/24 h
[21] = Males, baseline urine protein <100 mg/24 h
[22] = Males, baseline urine protein >1000 mg/24 h
[23] = mild or moderate renal impairment

Comparison to ERT-Naïve Study PK (migalastat concentration) ([3]; Pre-dose (0 h)): 8.70 ng/mL
concentration at 3 h ([3]; human, plasma, 3 Hrs Post): 1180 ng/mL
concentration at 48 h ([3]; human, plasma, 48 h): 8.7 ng/mL
AUC Ratio ([4]; Mild (>=60-<90) vs Normal): 1.2
AUC Ratio ([4]; Moderate (>=30-<60) vs Normal): 1.9
AUC Ratio ([4]; Severe (<30) vs Normal): 4.8
Mean percent of the dose recovered in urine ([6]; 25 mg): 32.2%
Mean percent of the dose recovered in urine ([6]; 75 mg): 43.0%
Mean percent of the dose recovered in urine ([6]; 225 mg): 49.3%
Mean percent of the dose recovered in urine ([6]; 675 mg): 48.5%
excretion ([6]; human, in vivo): primarily excreted unchanged in urine
half-life ([6]; human, plasma, single-dose studies, oral, read-out: mean elimination half-lives (t1/2)): 3.04 to 4.79 h
accumulation of plasma migalastat ([6]; multiple ascending dose studies): only minimal accumulation
increase of mean Cmax and AUC0-t with dose ([6]; oral doses from 75 mg to 1250 mg): dose-proportional manner
time to maximum concentrations ([6]; single-dose studies, oral, range 1 to 6 hrs): approximately 3 hours
Compound: OC[C@H]1NC[C@H](O)[C@@H](O)[C@H]1O [migalastat, (2R,3S,4R,5S)-2-(hydroxymethyl) piperdine-3,4,5-triol]
Plasma lyso-Gb3, change from baseline, mean [1, 13]: -29.0 nmol/L
Plasma lyso-Gb3, change from baseline, mean [1, 14]: -7.7 nmol/L
Plasma lyso-Gb3, change from baseline, mean [1, 15]: -20.0 nmol/L
LVMi, change from baseline, mean ± SE ([2]; renal subgroup 30 to < 60): −10.2 ± 2.4 gm^2
LVMi, change from baseline, mean ± SE ([2]; renal subgroup ≥60): −4.8 ± 2.3 gm^2
WBC α-Gal A Activity (males only), change from baseline, mean ± SE ([5]; renal subgroup 30 to < 60): +4.6 ± 2.3 4MU/hr/mg
WBC α-Gal A Activity (males only), change from baseline, mean ± SE ([5]; renal subgroup ≥60): +5.5 ± 1.4 4MU/hr/mg
LVMi, change from baseline, mean ± SE [7, 13]: −5.5 ± 10.0 gm^2
LVMi, change from baseline, mean ± SE [7, 14]: −9.2 ± 5.8 gm^2
LVMi, change from baseline, mean ± SE [7, 16]: −21.0 ± 14.1 gm^2
LVMi, change from baseline, mean ± SE [7, 15]: −3.2 ± 5.6 gm^2
effect on cardiac repolarization [8]: negative
Annualized Rate of Change in eGFRCKD-EPI ([9]; entire duration of migalastat treatment, Patient 1): −0.853 mL/min/1.72 m^2
Annualized Rate of Change in eGFRCKD-EPI ([9]; entire duration of migalastat treatment, Patient 2): 0.584 mL/min/1.72 m^2
Annualized Rate of Change in eGFRCKD-EPI ([9]; entire duration of migalastat treatment, Patient 3): −2.838 mL/min/1.72 m^2
Annualized Rate of Change in eGFRCKD-EPI ([9]; entire duration of migalastat treatment, Patient 4): 0.488 mL/min/1.72 m^2
Annualized Rate of Change in eGFRCKD-EPI ([9]; entire duration of migalastat treatment, Patient 5): 0.001 mL/min/1.72 m^2
Annualized Rate of Change in eGFRCKD-EPI ([9]; entire duration of migalastat treatment, Patient 6): −2.179 mL/min/1.72 m^2
Annualized Rate of Change in eGFRCKD-EPI ([9]; entire duration of migalastat treatment, Patient 7): −0.704 mL/min/1.72 m^2
Annualized Rate of Change in eGFRCKD-EPI ([9]; entire duration of migalastat treatment, Patient 8): −1.09 mL/min/1.72 m^2
Annualized Rate of Change in eGFRCKD-EPI ([9]; entire duration of migalastat treatment, Patient 9): −0.443 mL/min/1.72 m^2
Annualized Rate of Change in eGFRCKD-EPI ([9]; entire duration of migalastat treatment, Patient 10): 0.219 mL/min/1.72 m^2
Annualized Rate of Change in eGFRCKD-EPI ([9]; entire duration of migalastat treatment, Patient 11): −0.342 mL/min/1.72 m^2
Annualized Rate of Change in eGFRCKD-EPI ([9]; entire duration of migalastat treatment, Patient 12): −0.871 mL/min/1.72 m^2
Annualized Rate of Change in eGFRCKD-EPI ([9]; entire migalastat treatment period (mean exposure 8.2 years), Mean of 12 patients): −0.67 mL/min/1.72 m^2
Annualized eGFRCKD-EPI Change Rate, Mean (SE) [10, 17]: −0.3 (1.0) mL/min/1.73 m^2
Annualized eGFRCKD-EPI Change Rate, Mean (SE) [10, 18]: −0.9 (0.4) mL/min/1.73 m^2
Annualized eGFRCKD-EPI Change Rate, Mean (SE) [10, 19]: −2.2 (1.3) mL/min/1.73 m^2
Annualized eGFRCKD-EPI Change Rate, Mean (SE) [10, 20]: 0.2 (0.8) mL/min/1.73 m^2
Annualized eGFRCKD-EPI Change Rate, Mean (SE) [10, 21]: 0.4 (1.0) mL/min/1.73 m^2
Annualized eGFRCKD-EPI Change Rate, Mean (SE) [10, 22]: −5.1 (0.1) mL/min/1.73 m^2
Annualized eGFR Rate of Change (eGFRMDRD), Mean (SEM) [10, 17]: 1.3 (1.5) mL/min/m^2
Annualized eGFR Rate of Change (eGFRMDRD), Mean (SEM) [10, 18]: −0.9 (0.5) mL/min/m^2
Annualized eGFR Rate of Change (eGFRMDRD), Mean (SEM) [10, 19]: −1.7 (1.1) mL/min/m^2
Annualized eGFR Rate of Change (eGFRMDRD), Mean (SEM) [10, 20]: 0.9 (1.0) mL/min/m^2
Annualized eGFR Rate of Change (eGFRMDRD), Mean (SEM) [10, 21]: 1.2 (1.2) mL/min/m^2
Annualized eGFR Rate of Change (eGFRMDRD), Mean (SEM) [10, 22]: −4.3 (0.1) mL/min/m^2
WBC α-Gal A Activity (males only), change from baseline [11, 13]: +1.4 4MU/hr/mg
WBC α-Gal A Activity (males only), change from baseline, mean ± SE [11, 14]: +1.6 ± 1.5 4MU/hr/mg
WBC α-Gal A Activity (males only), change from baseline, mean ± SE [11, 16]: +4.0 ± 3.0 4MU/hr/mg
WBC α-Gal A Activity (males only), change from baseline, mean ± SE [11, 15]: 5.2 4MU/h/mg
Annualized Change in eGFRCKD-EPI, mean ± SE ([12]; renal subgroup 30 to < 60): −4.2 ± 2.7 mL/min/1.73 m^2
Annualized Change in eGFRCKD-EPI, mean ± SE ([12]; renal subgroup ≥60): −0.4 ± 0.8 mL/min/1.73 m^2
mean annualized rate of change of eGFRCKD-EPI [12, 23]: −3.33 mL/min/1.73 m^2/year
mean annualized rate of change of eGFRCKD-EPI ([12]; normal renal function): −0.4 mL/min/1.73 m^2/year
mean annualized rate of change mGFRiohexol [12, 23]: −3.51 mL/min/1.73 m^2/year
mean annualized rate of change mGFRiohexol ([12]; normal renal function): −4.35 mL/min/1.73 m^2/year
mean±SE annualized rate of change of eGFRCKD-EPI ([12]; mild renal impairment): −0.2±1.25 mL/min/1.73 m^2/year
mean±SE annualized rate of change of eGFRCKD-EPI ([12]; moderate renal impairment): −4.5±2.68 mL/min/1.73 m^2/year
mean±SE annualized rate of change of eGFRCKD-EPI ([12]; normal renal function): −2.0±0.57 mL/min/1.73 m^2/year
